The values that follow come from patent US11098040B2, “Compounds and methods of use” (Ferro Therapeutics, Inc., priority 2018, dated 2021).

In general, IC50 refers to the concentration that inhibits the measured activity by half.

In the first assay the test system is MV-4-1. Kind of assay: Cell viability assay (CellTiter Glo), leukemia cell line MV-4-1. The assay is classed as cell-based. The settings on record: 96 hours. The procedure:
(§1) Cell viability assay was performed to assess the potency of the compounds in human cancer cell lines KP4 (pancreatic ductal adenocarcinoma), MiaPaCa-2 (pancreatic carcinoma), AsPC-1 (pancreatic adenocarcinoma, ascites), 143B (osteosarcoma), and SJSA-1 (osteosarcoma). Selected compounds were also assayed in a human breast epithelial cell line MCF-10A, a nontumorigenic cell line as a control to assess differential activity. Cells at a density of 500-5,000 cells/well were seeded in 96-well plates and incubated at 37° C. overnight. A series of 9 different concentrations of compound stocks (500×) were created by 3-fold serial dilution in DMSO. These compounds were further diluted in culture media and then added to cells so that the final DMSO concentration was equal to 0.25% or less. After 96 hours of incubation, 50 μL of CellTiter Glo reagent (Promega) was added to each well and luminescence was measured after 10 minutes using EnVision (PerkinElmer). Compounds titrated from top concentration of up to 30 μM. The select compounds were tested initially from 30 μM as the top concentration in duplicates (range of 4.6 nM-30 μM). […] Luminescence from cells treated with DMSO alone was set as Max and % of inhibition was calculated as follows: Inhibition %=(Max-Sample value)/Max*100. Data was analyzed using XL-fit software (ID Business Solutions Ltd.). IC50, relative IC50, or % of top inhibition was calculated.
(§2) A group of selected analogs were further profiled in cell viability assays described above in multiple additional cancer cell lines, including lung cancer, melanoma, hepatocarcinoma, pancreatic cancer, leukemia, lymphoma, ovarian cancer, breast cancer, colon cancer, and sarcoma cell lines. Initial cell seeding numbers were adjusted for each cell line. Typically, 500-5000 cells/well for adherent cells and 5000-10000/well for suspension cells were seeded in 96-well plates.
The results of the assay in the leukemia cell lines are given in Table 16a for MV-4-1 and Table 16b for HL-60 and Kasumi-1.
(In ATP-based viability assays light output follows the ATP content of the culture.)
As to `C[C@H]1Cc2c([nH]c3ccccc23)[C@H](c2ccc(C(=O)N[C@]34CC5C[C@H](C[C@H](C5)C3)C4)cc2)N1C(=O)CCl` [Example 102], the midpoint of inhibition, the IC50, lay at 0.023 µM.

In turn, `C[C@H]1Cc2c([nH]c3ccccc23)[C@H](c2ccc(N3CCOCC3)cc2)N1C(=O)CCl` [Example 103] showed an IC50 of 0.23 µM.

In turn, `C[C@H]1Cc2c([nH]c3ccccc23)[C@H](c2ccc(C3CCCC3)cc2)N1C(=O)CCl` [Example 109] gave an IC50 of 0.168 µM.

Another assay has as its system H2228. Kind of assay: Cell viability assay (CellTiter Glo), lung cancer cell line H2228. The assay is classed as cell-based. Particulars: Homo sapiens, NCI-H2228; lung cancer cell line, 96 hours, CellTiter Glo; read-out: IC50 H2228. As for the experimental part:
as §1, §2
For `C[C@H]1Cc2c([nH]c3ccccc23)[C@H](c2ccc(C(=O)N[C@]34CC5C[C@H](C[C@H](C5)C3)C4)cc2)N1C(=O)CCl` [Example 102], the IC50 is 0.009 µM.

Turning to `C[C@H]1Cc2c([nH]c3ccccc23)[C@H](c2ccc(N3CCOCC3)cc2)N1C(=O)CCl` [Example 103], the half-maximal inhibitory concentration (IC50) stood at 0.034 µM.

`C[C@H]1Cc2c([nH]c3ccccc23)[C@H](c2ccc(C3CCCC3)cc2)N1C(=O)CCl` [Example 109]: the half-inhibitory concentration (IC50) is 0.057 µM.

In another assay the test system is REC-1. Briefly: Cell viability assay (CellTiter Glo), lymphoma cell line REC-1. The assay is classed as cell-based. Particulars: Homo sapiens, Rec1, 96 hours. As for the experimental part: as §1, §2
The molecule `C[C@H]1Cc2c([nH]c3ccccc23)[C@H](c2ccc(C(=O)N[C@]34CC5C[C@H](C[C@H](C5)C3)C4)cc2)N1C(=O)CCl` [Example 102] registered a concentration for half-maximal inhibition (IC50) of 0.031 µM.

In the case of `C[C@H]1Cc2c([nH]c3ccccc23)[C@H](c2ccc(N3CCOCC3)cc2)N1C(=O)CCl` [Example 103], it took 0.186 µM to reach half-maximal inhibition (IC50).

`C[C@H]1Cc2c([nH]c3ccccc23)[C@H](c2ccc(C3CCCC3)cc2)N1C(=O)CCl` [Example 109] registered a half-maximal inhibitory concentration (IC50) of 0.106 µM.

Another assay has as its system H1299. Briefly: Cell viability assay (CellTiter Glo), lung cancer cell line H1299. The assay is classed as cell-based. The settings on record: Homo sapiens, NCI-H1299, 96 hours. The procedure: as §1, §2
`C[C@H]1Cc2c([nH]c3ccccc23)[C@H](c2ccc(C(=O)N[C@]34CC5C[C@H](C[C@H](C5)C3)C4)cc2)N1C(=O)CCl` [Example 102] returned an IC50 of 0.003 µM.

`C[C@H]1Cc2c([nH]c3ccccc23)[C@H](c2ccc(N3CCOCC3)cc2)N1C(=O)CCl` [Example 103]: the half-maximal inhibitory concentration (IC50) came to 0.021 µM.

As for `C[C@H]1Cc2c([nH]c3ccccc23)[C@H](c2ccc(C3CCCC3)cc2)N1C(=O)CCl` [Example 109], the 50% inhibitory concentration (IC50) was determined as 0.032 µM.

A further assay relates to HT-1080 luc2. Briefly: Cell viability assay (CellTiter Glo), fibrosarcoma HT-1080 luc2. The assay is classed as cell-based. The settings on record: Homo sapiens, fibrosarcoma expressing a luciferase gene, 96 hours, CellTiter Glo, read-out: IC50 HT-1080 luc2. The procedure:
as §1, §2
The results of the assay in sarcoma cell lines are given in Table 21a for HT-1080 luc2 (fibrosarcoma expressing a luciferase gene), Table 21b for 143B (osteosarcoma), and Table 21c for SJSA-1 (osteosarcoma).
As for `C[C@H]1Cc2c([nH]c3ccccc23)[C@H](c2ccc(C(=O)N[C@]34CC5C[C@H](C[C@H](C5)C3)C4)cc2)N1C(=O)CCl` [Example 102], the IC50 worked out at 0.004 µM.

As to `C[C@H]1Cc2c([nH]c3ccccc23)[C@H](c2ccc(N3CCOCC3)cc2)N1C(=O)CCl` [Example 103], the IC50 worked out at 0.028 µM.

Take `C[C@H]1Cc2c([nH]c3ccccc23)[C@H](c2ccc(C3CCCC3)cc2)N1C(=O)CCl` [Example 109]: the IC50 stood at 0.019 µM.

A further assay deals with SK-OV-3. Briefly: Cell viability assay (CellTiter Glo), ovarian cancer cell line SK-OV-3. The assay is classed as cell-based. Particulars: Homo sapiens, 96 hours. The procedure: as §1, §2
The molecule `C[C@H]1Cc2c([nH]c3ccccc23)[C@H](c2ccc(C(=O)N[C@]34CC5C[C@H](C[C@H](C5)C3)C4)cc2)N1C(=O)CCl` [Example 102] showed a concentration for half-maximal inhibition (IC50) of 0.013 µM.

In the case of `C[C@H]1Cc2c([nH]c3ccccc23)[C@H](c2ccc(N3CCOCC3)cc2)N1C(=O)CCl` [Example 103], the IC50 stood at 0.113 µM.

Regarding `C[C@H]1Cc2c([nH]c3ccccc23)[C@H](c2ccc(C3CCCC3)cc2)N1C(=O)CCl` [Example 109], the IC50 was 0.063 µM.

A further assay concerns Huh7. Briefly: Cell viability assay (CellTiter Glo), hepatocellular carcinoma Huh7. The assay is classed as cell-based. The settings on record: Homo sapiens, Huh-7, 96 hours. The procedure:
as §1, §2
On to `C[C@H]1Cc2c([nH]c3ccccc23)[C@H](c2ccc(C(=O)N[C@]34CC5C[C@H](C[C@H](C5)C3)C4)cc2)N1C(=O)CCl` [Example 102], for which the IC50 was found to be 0.011 µM.

Molecule `C[C@H]1Cc2c([nH]c3ccccc23)[C@H](c2ccc(N3CCOCC3)cc2)N1C(=O)CCl` [Example 103] had an IC50 of 0.084 µM.

As to `C[C@H]1Cc2c([nH]c3ccccc23)[C@H](c2ccc(C3CCCC3)cc2)N1C(=O)CCl` [Example 109], the concentration for half-maximal inhibition (IC50) came to 0.043 µM.

In the next assay the test system is HCC1954. Kind of assay: Cell viability assay (CellTiter Glo), breast cancer cell line HCC1954. The assay is classed as cell-based. The settings on record: Homo sapiens, 96 hours. The procedure:
as §1, §2
Take `C[C@H]1Cc2c([nH]c3ccccc23)[C@H](c2ccc(C(=O)N[C@]34CC5C[C@H](C[C@H](C5)C3)C4)cc2)N1C(=O)CCl` [Example 102]: inhibition was half-maximal at 0.038 µM (IC50).

For the molecule `C[C@H]1Cc2c([nH]c3ccccc23)[C@H](c2ccc(N3CCOCC3)cc2)N1C(=O)CCl` [Example 103], the IC50 was determined as 0.137 µM.

Consider `C[C@H]1Cc2c([nH]c3ccccc23)[C@H](c2ccc(C3CCCC3)cc2)N1C(=O)CCl` [Example 109], for which the IC50 was determined as 0.108 µM.

The next assay deals with MCF-10A. Kind of assay: Cell viability assay (CellTiter Glo), non-tumorigenic breast epithelial cell line MCF-10A. The assay is classed as cell-based. Particulars: Homo sapiens, 96 hours. The method in brief: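 Non-tumorigenic breast epithelial MCF-10A line, exposed for 96 hours to compound (top concentration up to 30 μM, 3-fold steps, duplicates, final DMSO 0.25% or less). ATP luminescence (CellTiter Glo) normalised to DMSO controls yields IC50, relative IC50 or % top inhibition; paclitaxel served as cytotoxic control.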
On to `C[C@H]1Cc2c([nH]c3ccccc23)[C@H](c2ccc(C(=O)N[C@]34CC5C[C@H](C[C@H](C5)C3)C4)cc2)N1C(=O)CCl` [Example 102], for which the half-inhibitory concentration (IC50) was 0.22 µM.

As for `C[C@H]1Cc2c([nH]c3ccccc23)[C@H](c2ccc(N3CCOCC3)cc2)N1C(=O)CCl` [Example 103], the IC50 worked out at 1.37 µM.

With `C[C@H]1Cc2c([nH]c3ccccc23)[C@H](c2ccc(C3CCCC3)cc2)N1C(=O)CCl` [Example 109], the IC50 was 1.14 µM.

The next assay has as its system MDA-MB-435S. Kind of assay: Cell viability assay (CellTiter Glo), melanoma cell line MDA-MB-435S. Particulars: Homo sapiens, 96 hours. The assay is classed as cell-based. The procedure: as §1, §2
Consider `C[C@H]1Cc2c([nH]c3ccccc23)[C@H](c2ccc(C(=O)N[C@]34CC5C[C@H](C[C@H](C5)C3)C4)cc2)N1C(=O)CCl` [Example 102], for which the IC50 worked out at 0.004 µM.

In the case of `C[C@H]1Cc2c([nH]c3ccccc23)[C@H](c2ccc(N3CCOCC3)cc2)N1C(=O)CCl` [Example 103], 0.038 µM corresponded to half-maximal inhibition (IC50).

The molecule `C[C@H]1Cc2c([nH]c3ccccc23)[C@H](c2ccc(C3CCCC3)cc2)N1C(=O)CCl` [Example 109] gave a 50% inhibitory concentration (IC50) of 0.017 µM.

Another assay deals with PANC1. Briefly: Cell viability assay (CellTiter Glo), pancreatic cell line PANC1. The assay is classed as cell-based. The settings on record: Homo sapiens, PANC-1, 96 hours. The procedure:
as §1, §2
The results of the assay in the pancreatic cell lines are given in Table 15a for PANC1, Table 15b for MiaPaCa-2, and Table 15c for AsPC-1.
The molecule `C[C@H]1Cc2c([nH]c3ccccc23)[C@H](c2ccc(C(=O)N[C@]34CC5C[C@H](C[C@H](C5)C3)C4)cc2)N1C(=O)CCl` [Example 102] returned an IC50 of 0.03 µM.

In turn, `C[C@H]1Cc2c([nH]c3ccccc23)[C@H](c2ccc(N3CCOCC3)cc2)N1C(=O)CCl` [Example 103] gave a half-maximal inhibitory concentration (IC50) of 0.161 µM.

`C[C@H]1Cc2c([nH]c3ccccc23)[C@H](c2ccc(C3CCCC3)cc2)N1C(=O)CCl` [Example 109] displayed an IC50 of 0.069 µM.

A further assay has as its system HT29. Kind of assay: Cell viability assay (CellTiter Glo), colon cancer cell line HT29. The assay is classed as cell-based. The settings on record: Homo sapiens, HT-29, 96 hours. The procedure: as §1, §2
On to `C[C@H]1Cc2c([nH]c3ccccc23)[C@H](c2ccc(C(=O)N[C@]34CC5C[C@H](C[C@H](C5)C3)C4)cc2)N1C(=O)CCl` [Example 102], for which it took 0.048 µM to reach half-maximal inhibition (IC50).

Molecule `C[C@H]1Cc2c([nH]c3ccccc23)[C@H](c2ccc(N3CCOCC3)cc2)N1C(=O)CCl` [Example 103] registered an IC50 of 0.448 µM.

Regarding `C[C@H]1Cc2c([nH]c3ccccc23)[C@H](c2ccc(C3CCCC3)cc2)N1C(=O)CCl` [Example 109], the IC50 was 0.174 µM.

Another assay relates to Raji. Kind of assay: Cell viability assay (CellTiter Glo), lymphoma cell line Raji. The assay is classed as cell-based. Particulars: Homo sapiens, 96 hours. The procedure: as §1, §2
The molecule `C[C@H]1Cc2c([nH]c3ccccc23)[C@H](c2ccc(C(=O)N[C@]34CC5C[C@H](C[C@H](C5)C3)C4)cc2)N1C(=O)CCl` [Example 102] returned an IC50 of 0.01 µM.

In turn, `C[C@H]1Cc2c([nH]c3ccccc23)[C@H](c2ccc(N3CCOCC3)cc2)N1C(=O)CCl` [Example 103] showed an IC50 of 0.074 µM.

Turning to `C[C@H]1Cc2c([nH]c3ccccc23)[C@H](c2ccc(C3CCCC3)cc2)N1C(=O)CCl` [Example 109], the IC50 amounted to 0.038 µM.
